In patent US20070269570A1, “FLAVONOID SUGAR ADDITION PRODUCTS, METHOD FOR MANUFACTURE AND USE THEREOF” (priority 2006, published 2007):

How the values were obtained:
Assay type in all cases: in vivo, human
[1] = Sensory tasting against grape seed extract; details: ca. 10 ppm added to 2000 ppm grape seed extract
[2] = Sensory tasting against pure theobromine; details: ca. 10 ppm added to 600 ppm theobromine
Source text: Theobromine (600 ppm)+ca. 10 ppm 8-C-glucosylated catechin.

[3] = Sensory tasting in non-alkalized cocoa powder drink; details: 50 ppm added
[4] = Sensory tasting in alkalized cocoa powder drink; details: for sensory evaluation of bitterness versus control: 50 ppm added (ppm refer to 1 kg of water), 8 persons
Description: The modified product of example 6 was further compared to alkalized cocoa powder (5 g/200 ml)+50 ppm Epicat-6-C-Glc (ppm refer to 1 kg of water).
The modified product of example 6 was further compared to alkalized cocoa powder (5 g/200 ml)+50 ppm Cat-6,8-C-di-Glc (ppm refer to 1 kg of water).
The examples were repeated with the catechin and epicatechin galactosides and the same sensory results were obtained.

[5] = Triangle test of taste modification of theobromine solution; details: for taste: compared with theobromine reference; for % of panellists who detected a difference: eight panelists; for taste intensity: theobromine reference bitterness 5.0
Source text: To investigate the influence of taste modification of (−)-catechin-8-C-β-D-glucopyranoside on theobromine in comparison to the aglycons (+)-catechin and (−)-epicatechin as well as further C-glycosides like apigenin-8-C-β-D-glucopyranoside (vitexin) and apigenin-6-C-β-D-glucopyranoside (isovitexin), theobromine (3 mmol/L) was spiked with different concentrations of (−)-catechin-8-C-β-D-glucopyranoside, (+)-catechin, (−)-epicatechin as well as apigenin-8-C-β-D-glucopyranoside (vitexin) and apigenin-6-C-β-D-glucopyranoside (isovitexin).

[6] = Sensory tasting in astringent dark chocolate; details: 77 mg of 7.8% solution in propylene glycol per 20 g dark chocolate
Description: 77 mg of a solution of catechin-8-C-glucoside dissolved in propylene glycol (7.8%) was added to 20 g of molten dark chocolate with strong astringent taste characteristics. After solidification, the chocolate was tasted against a non-treated reference chocolate.
Food ingredients were prepared starting from green tea extract (5 g) or grape seed extract (5 g) by reaction with glucose (4 g) and 3% K2C03 in 100 ml of water. The reaction was done at 80° C. for exactly 20 min. The resulting flavour reaction mix was freeze-dried to obtain a dark red-brown mass which was then added to astringent tasting chocolate at various levels. In a first screening sensory tasting, the optimum level of addition was identified as 300 ppm.
Ingredients prepared from grape seed extract and tea extract in such a manner when added to dark chocolate at 330 ppm decreased the perceived sensory perception of astringency in the dark chocolate.

In the case of `OC[C@H]1O[C@@H](c2c(O)cc(O)c3c2O[C@@H](c2ccc(O)c(O)c2)[C@H](O)C3)[C@H](O)[C@@H](O)[C@@H]1O` [(−)-catechin-8-C-β-D-glucopyranoside], the “astringency versus reference of grape seed extract” value [1] is reported as “decrease in astringency”, the “bitterness intensity compared to pure theobromine” value [2] is reported as “did not a perceive a decrease in bitterness intensity” and the “timing of bitterness perception compared to pure theobromine” value [2] is reported as “delay in bitterness perception”. For the same compound, the “taste perception versus reference without addition” value [3] was “milder and less astringent”, the “taste perception versus reference without addition” value ([4]; 50 ppm added, 5 persons) was “less bitter and less astringent” and the taste ([5]; 2.2 μmol/L added) was “softer, more”. The “% of panellists who detected a difference” value ([5]; 2.2 μmol/L added) was 10%, the taste intensity ([5]; 2.2 μmol/L added) was “(4.5)” and the taste ([5]; 22.2 μmol/L added) was “softer, more pleasant”. The “% of panellists who detected a difference” value ([5]; 22.2 μmol/L added) was 50%, the taste intensity ([5]; 22.2 μmol/L added) was “less bitter (3.5)” and the taste ([5]; 222/L μmol/L added) was “softer, more pleasant”. The “% of panellists who detected a difference” value ([5]; 222/L μmol/L added) was 100%, the taste intensity ([5]; 222/L μmol/L added) was “less bitter (1.0)” and the “astringency versus non-treated reference chocolate” value [6] was “lower”. The “bitterness versus non-treated reference chocolate” value [6] was “remained unchanged” and the “tasters who noticed a "smoothing out" effect” value [6] was 4 of 5.

In the case of `O=c1cc(-c2ccc(O)cc2)oc2cc(O)c([C@@H]3O[C@H](CO)[C@@H](O)[C@H](O)[C@H]3O)c(O)c12` [isovitexin, apigenin-6-C-β-D-glucopyranoside], the taste ([5]; 2.2 μmol/L added) is reported as “bitterness”, the “% of panellists who detected a difference” value ([5]; 2.2 μmol/L added) is reported as 0% and the taste intensity ([5]; 2.2 μmol/L added) is reported as 5.0. For the same compound, the taste ([5]; 22.2 μmol/L added) was “bitterness”, the “% of panellists who detected a difference” value ([5]; 22.2 μmol/L added) was 0% and the taste intensity ([5]; 22.2 μmol/L added) was 5.0. The taste ([5]; 222/L μmol/L added) was “bitterness”, the “% of panellists who detected a difference” value ([5]; 222/L μmol/L added) was 50% and the taste intensity ([5]; 222/L μmol/L added) was 4.5.

In the case of `O=c1cc(-c2ccc(O)cc2)oc2c([C@@H]3O[C@H](CO)[C@@H](O)[C@H](O)[C@H]3O)c(O)cc(O)c12` [vitexin, apigenin-8-C-β-D-glucopyranoside], the “% of panellists who detected a difference” value ([5]; 2 μmol/L added) is reported as 0%, the taste intensity ([5]; 2 μmol/L added) is reported as 5.0 and the “% of panellists who detected a difference” value ([5]; 22.2 μmol/L added) is reported as 0%. For the same compound, the taste intensity ([5]; 22.2 μmol/L added) was 5.0, the “% of panellists who detected a difference” value ([5]; 222/L μmol/L added) was 50% and the taste intensity ([5]; 222/L μmol/L added) was 4.5.

For `Oc1cc(O)c2c(c1)O[C@H](c1ccc(O)c(O)c1)[C@@H](O)C2` [(+)-catechin], the taste ([5]; 2.2 μmol/L added) was “bitterness”, the “% of panellists who detected a difference” value ([5]; 2.2 μmol/L added) was 0% and the taste intensity ([5]; 2.2 μmol/L added) was 5.0. For the same compound, the taste ([5]; 22.2 μmol/L added) was “more cocoa like”, the “% of panellists who detected a difference” value ([5]; 22.2 μmol/L added) was 50% and the taste intensity ([5]; 22.2 μmol/L added) was 5.0. The taste ([5]; 222/L μmol/L added) was “more cocoa like”, the “% of panellists who detected a difference” value ([5]; 222/L μmol/L added) was 50% and the taste intensity ([5]; 222/L μmol/L added) was “bitterness (4.0)”.

With `Oc1cc(O)c2c(c1)OC(c1ccc(O)c(O)c1)C(O)C2` (single isomer, unassigned; (-)) [(−)-epicatechin] the taste ([5]; 2.2 μmol/L added) was “bitterness”, the “% of panellists who detected a difference” value ([5]; 2.2 μmol/L added) was 0% and the taste intensity ([5]; 2.2 μmol/L added) was 5.0. The taste ([5]; 22.2 μmol/L added) was “more cocoa like”, the “% of panellists who detected a difference” value ([5]; 22.2 μmol/L added) was 50% and the taste intensity ([5]; 22.2 μmol/L added) was 5.0. The taste ([5]; 222/L μmol/L added) was “more cocoa like”, the “% of panellists who detected a difference” value ([5]; 222/L μmol/L added) was 50% and the taste intensity ([5]; 222/L μmol/L added) was “bitterness (4.0)”.

In the case of `OC[C@H]1O[C@@H](c2c(O)cc3c(c2O)C[C@@H](O)[C@H](c2ccc(O)c(O)c2)O3)[C@H](O)[C@@H](O)[C@@H]1O` [Cat-6-C-Glc, (−)-catechin-6-C-β-D-glucopyranoside], the “sensory evaluation of bitterness versus control” value [4] is reported as “lower maximum bitterness intensity than in the control sample, a flat bitterness profile and a “softer bitterness quality”.

For `OCC1OC(c2c(O)c3c(c(C4OC(CO)C(O)C(O)C4O)c2O)OC(c2ccc(O)c(O)c2)C(O)C3)C(O)C(O)C1O` (single isomer, unassigned; (-)) [Cat-6,8-C-di-Glc, (−)-cat-echin-6-C-8-C-β-D-diglucopyranoside], the “sensory evaluation of bitterness versus control” value [4] was “lower maximum bitterness intensity than control, a flatter bitterness profile and a “softer” bitterness quality”.

For `OC[C@H]1O[C@@H](c2c(O)cc3c(c2O)C[C@@H](O)[C@@H](c2ccc(O)c(O)c2)O3)[C@H](O)[C@@H](O)[C@@H]1O` [Epicat-6-C-Glc, (−)-epicatechin-6-C-β-D-glucopyranoside], the “sensory evaluation of bitterness versus control” value [4] was “lower maximum bitterness intensity than control, a flatter bitterness profile and a “softer” bitterness quality”.
